Measured values from article PMC12635268, “Novel antimicrobial peptides and peptide-microbiome crosstalk in Appalachian salamander skin” (NPJ Biofilms and Microbiomes, 2025).
Read-outs that look alike come from different tables or passages of the source. Peptide text beside a SMILES is read from it.

Tests used:
A. baumannii ATCC 19606 = assay: microbe, parasite or virus in culture
Method: (§1) Antimicrobial susceptibility testing of the 20 synthesized peptides against 17 bacterial strains of clinical relevance in the ESKAPEE panel was conducted using minimum inhibitory concentration (MIC) assays following the broth microdilution method outlined by Parker et al.[91]. The ESKAPEE panel is comprised of fourteen American Type Culture Collection (ATCC) strains and three Multidrug Resistant Organism Repository and Surveillance Network (MRSN) bacterial strains. These strains represent at least one drug-susceptible strain and one drug-resistant strain for each bacterium to assess drug efficacy across various resistance mechanisms. This panel is comprised of the following bacterial species and strains: E. faecium (ATCC 19434, ATCC 49224), S. aureus (ATCC 25923, ATCC 43300), K. pneumoniae (ATCC 700603, ATCC 13883, MRSN 1320), A. baumannii (ATCC 17978, ATCC 19606, MRSN 959), P. aeruginosa (ATCC 15692, ATCC 27853, MRSN 5519), E. cloacae (ATCC 13047, ATCC 35549), and E. coli (ATCC 35218, ATCC 43888). Bacteria were grown in cation-adjusted Mueller-Hinton broth (CAMHB) to achieve a final inoculum of 1 × 10⁵ CFU/mL. CAMHB is selected for its batch-to-batch reproducibility, low levels of antimicrobial inhibitors, and ability to support the growth of most bacterial pathogens.
(§2) Briefly, lyophilized peptides were dissolved in 0.2% TFA + 0.4% BSA in water to 2.56 mg/mL, ultrasonicated for 20 min, diluted 10-fold into CAMHB, and then serially diluted 2-fold in 0.02% TFA + 0.04% BSA in CAMHB and assayed at a concentration of 0.25 to 128 μg/mL. Assays were set up using the Tecan Freedom EVO liquid handling robot and software (Tecan, Switzerland) with 50 μL of bacterial inoculum and 50 μL of peptide transferred into round-bottom 96-well microtiter plates. Each plate assay was performed in duplicate and incubated at 37 °C for 20 h without agitation. Bacterial growth was assessed using the BIOMIC V3 Image Analysis system (Giles Scientific, USA) and the MIC values were determined visually according to the Clinical and Laboratory Standards Institute (CLSI) guidelines.

S. aureus ATCC 43300 = assay: microbe, parasite or virus in culture; conditions: S. aureus 43300; Week 1 (12/6/2023)
Method: as §1, §2

K. pneumoniae ATCC 13883 = assay: microbe, parasite or virus in culture
Method: as §1, §2

E. faecium ATCC 19434 = assay: microbe, parasite or virus in culture
Method: as §1, §2

[1] = system: K. pneumoniae ATCC 700603; assay: microbe, parasite or virus in culture; conditions: K. pneumoniae 700603; Week 1 (12/6/2023)
Method: as §1, §2

S. aureus ATCC 25923 = assay: microbe, parasite or virus in culture
Method: as §1, §2

E. cloacae ATCC 35549 = assay: microbe, parasite or virus in culture
Method: as §1, §2

P. aeruginosa MRSN 5519 = assay: microbe, parasite or virus in culture
Method: as §1, §2

E. faecium ATCC 49224 = assay: microbe, parasite or virus in culture
Method: as §1, §2

E. coli ATCC 35218 = assay: microbe, parasite or virus in culture; conditions: E. coli 35218; Week 1 (12/6/2023)
Method: as §1, §2

E. cloacae ATCC 13047 = assay: microbe, parasite or virus in culture
Method: as §1, §2

A. baumannii ATCC 17978 = assay: microbe, parasite or virus in culture
Method: as §1, §2

E. coli ATCC 43888 = assay: microbe, parasite or virus in culture
Method: as §1, §2

P. aeruginosa ATCC 27853 = assay: microbe, parasite or virus in culture
Method: as §1, §2

A. baumannii 5075 = conditions: Week 1 (12/6/2023)
P. aeruginosa PA01 (Si) = assay: microbe, parasite or virus in culture; type: cell-based
Description: Supplement 41522_2025_837_MOESM13_ESM.xlsx, sheet "Table_S13_ESKAPEE-MIC" | column: Bacterial MIC (µg/mL)

[2] = set-up: method as in Biomatik (vendor); conditions: 1.0 mg peptide in 1.0 ml solvent; peptides synthesized by Biomatik; ref Biomatik (vendor); cited from earlier work

Row | SMILES | Bacterial MIC (S. aureus ATCC 43300) [µg/mL] | Bacterial MIC [1] [µg/mL] | Bacterial MIC (E. coli ATCC 35218) [µg/mL] | Bacterial MIC (A. baumannii 5075) [µg/mL] | Suggest solvent (solubility) [2] | Bacterial MIC (A. baumannii ATCC 19606; ATCC 19606, 20 h) [µg/mL] | Bacterial MIC (K. pneumoniae ATCC 13883; ATCC 13883, 20 h) [µg/mL] | Bacterial MIC (E. faecium ATCC 19434; ATCC 19434, 20 h) [µg/mL] | Bacterial MIC (S. aureus ATCC 25923; ATCC 25923, 20 h) [µg/mL] | Bacterial MIC (E. cloacae ATCC 35549; ATCC 35549, 20 h) [µg/mL] | Bacterial MIC (P. aeruginosa MRSN 5519; MRSN 5519, 20 h) [µg/mL] | Bacterial MIC (E. faecium ATCC 49224; ATCC 49224, 20 h) [µg/mL] | Bacterial MIC (E. cloacae ATCC 13047; ATCC 13047, 20 h) [µg/mL] | Bacterial MIC (A. baumannii ATCC 17978; ATCC 17978, 20 h) [µg/mL] | Bacterial MIC (E. coli ATCC 43888; ATCC 43888, 20 h) [µg/mL] | Bacterial MIC (P. aeruginosa ATCC 27853; ATCC 27853, 20 h) [µg/mL] | Bacterial MIC (P. aeruginosa PA01 (Si); Si) [µg/mL] | Bacterial MIC (K. pneumoniae 4640; 4640, 20 h) [µg/mL] | other results
1 | N=C(N)NCCC[C@H](N)C(=O)N1CCC[C@H]1C(=O)N1CCC[C@H]1C(=O)NCC(=O)N[C@@H](Cc1ccccc1)C(=O)N[C@@H](CO)C(=O)N1CCC[C@H]1C(=O)N[C@@H](Cc1ccccc1)C(=O)O [PrMb-Eb14] | >128.000 | >128.000 | >128.000 | >128.000 | 1.0mg peptide soluble in 1.0ml H2O | – | – | – | – | – | – | – | – | – | – | – | – | – | Bacterial MIC (A. baumannii ATCC 19606; A. baumannii 19606, Week 1 (12/6/2023)): >128.000 µg/mL; Bacterial MIC (K. pneumoniae ATCC 13883; K. pneumoniae 13883, Week 1 (12/6/2023)): >128.000 µg/mL; Bacterial MIC (E. faecium ATCC 19434; E. faecium 19434, Week 1 (12/6/2023)): >128.000 µg/mL; Bacterial MIC (S. aureus ATCC 25923; S. aureus 25923, Week 1 (12/6/2023)): >128.000 µg/mL; Bacterial MIC (E. cloacae ATCC 35549; E. cloacae 35549, Week 1 (12/6/2023)): >128.000 µg/mL; Bacterial MIC (P. aeruginosa MRSN 5519; P. aeruginosa 5519, Week 1 (12/6/2023)): >128.000 µg/mL; Bacterial MIC (E. faecium ATCC 49224; E. faecium 49224, Week 1 (12/6/2023)): >128.000 µg/mL; Bacterial MIC (E. cloacae ATCC 13047; E. cloacae 13047, Week 1 (12/6/2023)): >128.000 µg/mL; Bacterial MIC (A. baumannii ATCC 17978; A. baumannii 17978, Week 1 (12/6/2023)): >128.000 µg/mL; Bacterial MIC (E. coli ATCC 43888; E. coli 43888, Week 1 (12/6/2023)): >128.000 µg/mL; Bacterial MIC (P. aeruginosa ATCC 27853; P. aeruginosa 27853, Week 1 (12/6/2023)): >128.000 µg/mL; Bacterial MIC (P. aeruginosa PA01 (Si); P. aeruginosa PA01 (Si), not typical ESKAPEE strain, Week 1 (12/6/2023)): >128.000 µg/mL; Bacterial MIC (K. pneumoniae 4640; K. pneumoniae 4640, Week 1 (12/6/2023)): >128.000 µg/mL
2 | CC[C@H](C)[C@H](NC(=O)[C@H](CCSC)NC(=O)[C@H](CS)NC(=O)[C@H](CC(C)C)NC(=O)[C@@H](NC(=O)[C@H](CS)NC(=O)[C@H](CS)NC(=O)[C@H](CCSC)NC(=O)[C@H](CS)NC(=O)[C@H](CO)NC(=O)[C@H](CC(C)C)NC(=O)[C@H](CCC(N)=O)NC(=O)[C@H](CCCCN)NC(=O)[C@H](Cc1c[nH]cn1)NC(=O)[C@H](CCC(N)=O)NC(=O)[C@H](Cc1c[nH]c2ccccc12)NC(=O)[C@@H](NC(=O)[C@@H](NC(=O)[C@H](CCC(=O)O)NC(=O)[C@@H](NC(=O)[C@H](CC(=O)O)NC(=O)[C@@H](NC(=O)[C@H](CC(C)C)NC(=O)[C@H](CC(=O)O)NC(=O)[C@@H](N)CCCCN)[C@@H](C)CC)[C@@H](C)O)[C@@H](C)O)[C@@H](C)O)C(C)C)C(=O)N[C@@H](C)C(=O)N[C@@H](CCCCN)C(=O)N[C@@H](CCCNC(=N)N)C(=O)N[C@@H](CS)C(=O)N[C@@H](CS)C(=O)O [Tr-Pc15] (H-KDLIDTETTWQHKQLSCMCCVLCMIAKRCC-OH; N-terminus and C-terminus assumed) | – | – | – | – | 1.0mg peptide soluble in 1.0ml DMSO | >128.000 | >128.000 | >128.000 | >128.000 | >128.000 | >128.000 | >128.000 | >128.000 | >128.000 | >128.000 | >128.000 | >128.000 | >128.000 | –
3 | CC[C@H](C)[C@H](NC(=O)CNC(=O)CNC(=O)[C@@H](NC(=O)[C@H](CS)NC(=O)[C@H](CCCCN)NC(=O)[C@H](CCCCN)NC(=O)CNC(=O)[C@@H](NC(=O)[C@@H]1CCCN1C(=O)[C@@H](N)CCC(N)=O)[C@@H](C)CC)[C@@H](C)O)C(=O)N[C@@H](CC(N)=O)C(=O)N[C@@H](CS)C(=O)N[C@@H](CCCCN)C(=O)N[C@@H](CCCCN)C(=O)NCC(=O)N1CCC[C@H]1C(=O)N1CCC[C@H]1C(=O)N[C@@H](CCCNC(=N)N)C(=O)N[C@@H](CC(C)C)C(=O)N[C@@H](CCCCN)C(=O)N1CCC[C@H]1C(=O)NCC(=O)O [TrPr-Pc6] (H-QPIGKKCTGGINCKKGPPRLKPG-OH; N-terminus and C-terminus assumed) | >128.000 | >128.000 | >128.000 | >128.000 | 1.0mg peptide soluble in 1.0ml H2O | >128.000 | >128.000 | >128.000 | >128.000 | >128.000 | >128.000 | >128.000 | >128.000 | >128.000 | >128.000 | >128.000 | >128.000 | >128.000 | –
4 | CC[C@H](C)[C@H](N)C(=O)N[C@@H](CC(C)C)C(=O)N[C@@H](CCCNC(=N)N)C(=O)N[C@@H](CCCCN)C(=O)N1CCC[C@H]1C(=O)N[C@@H](CCC(=O)O)C(=O)N[C@@H](CCCCN)C(=O)N[C@@H](CC(=O)O)C(=O)N[C@@H](CC(=O)O)C(=O)N[C@@H](CC(=O)O)C(=O)N[C@H](C(=O)N[C@@H](CO)C(=O)N[C@@H](CO)C(=O)N[C@@H](CCCNC(=N)N)C(=O)N[C@H](C(=O)NCC(=O)N[C@@H](Cc1ccc(O)cc1)C(=O)N[C@@H](CC(C)C)C(=O)N[C@@H](Cc1ccccc1)C(=O)N[C@@H](CS)C(=O)N[C@@H](CS)C(=O)N[C@@H](CCCCN)C(=O)N[C@@H](CCSC)C(=O)N[C@@H](CCCNC(=N)N)C(=O)N[C@@H](CC(C)C)C(=O)N[C@@H](CS)C(=O)N[C@@H](C)C(=O)N[C@@H](CS)C(=O)N[C@@H](CCCNC(=N)N)C(=O)N[C@@H](CCCNC(=N)N)C(=O)N[C@@H](CO)C(=O)O)[C@@H](C)CC)[C@@H](C)O [Tr-Eb4] (H-ILRKPEKDDDTSSRIGYLFCCKMRLCACRRS-OH; N-terminus and C-terminus assumed) | – | – | – | – | 1.0mg peptide soluble in 1.0ml DMSO | >128.000 | >128.000 | >128.000 | >128.000 | >128.000 | >128.000 | >128.000 | >128.000 | >128.000 | >128.000 | >128.000 | >128.000 | >128.000 | –
